A short description of data set [1]: ABTS radical scavenging assay. As to conditions: 734 nm after 5 min.
Experimental: These compounds were also tested for their antioxidant activities by using the ABTS [2,2′-azinobis (3-ethylbenzothiazoline-6-sulfonic acid)] cation radical decolorization method (Table 4). The BHT [41] was used for comparison. The ABTS cation radical is produced by oxidation of the ABTS molecule with strong oxidizing agents, such as potassium persulfate in water.
For ABTS assay, the procedure followed the method of Arnao et al. [71] with some modifications. […] The working solution was then prepared by mixing the two stock solutions in equal quantities and allowing them to react for 14 h at room temperature in the dark. […] A fresh ABTS solution was prepared for each assay. […] The ABTS scavenging capacity of the compound was calculated as follows:ABTS radical scavenging activity (%) = ((Abscontr. − Abssample)/Abscontr.) ×100, where Abscontr. is the absorbance of DPPH radical with 300 μL MeOH, Abssample is the absorbance of DPPH radical solution mixed with the sample. […] BHT was used as positive control.
Data set [2] is described as follows: DPPH radical scavenging activity. Particulars: 300 μL of 5 mM compound in MeOH, 30 min, 517 nm.
Experimental: The DPPH (2,2-diphenyl-1-picryl-hydrazyl-hydrate) free radical scavenging activity method is based on the neutralization of the DPPH radical by an antioxidant.
Free radical scavenging activity was measured using DPPH method [69, 70] with slight modification. Here, 300 μL of 5 mM solutions of tested compounds in MeOH were added to 2 mL methanolic solution of DPPH (2 mg/mL). […] Results were evaluated as percentage scavenging of radical:DPPH radical scavenging activity (%) = ((Abscontr. − Abssample)/Abscontr.) ×100, where Abscontr. is the absorbance of DPPH radical with 300 μL MeOH, Abssample is the absorbance of DPPH radical solution mixed with sample. BHT was used as positive control.
The nature of data set [3]: Ferric reducing antioxidant power (FRAP). Particulars: 150 μL of 5 mM compound, 30 min, 593 nm, Trolox equivalent.
For another data set, the system named is CCL-1 cells. The data set is described as follows: MTT cytotoxicity, CCL-1 normal fibroblasts. Particulars: Mus musculus, Fibroblast; MTT, 72 h exposure; read-out: CCL-1 IC50. The class given is cell-based, murine.
Data set [4] can be described thus: Lipid peroxidation in linoleic acid system, FTC method. As to conditions: 10 mM compound, 500 nm.
Experimental: The antioxidant activity of studied compounds against lipid peroxidation was measured through ammonium thiocyanate assay as described by Takao et al. [66] with some modifications. […] A 10 μL aliquot of the reaction solution was then added to 200 μL of 70% (v/v) ethanol and 10 μL of 30% (w/v) ammonium thiocyanate. […] Aliquots were assayed every 24 h until the day after the absorbance of the control solution (without compound) reached maximum value. BHT (10 mM) was used as positive control.
The test system of a further data set is SH-SY5Y cells. Briefly: MTT cytotoxicity, SH-SY5Y. As to conditions: Homo sapiens, SH-SY5Y; MTT, 72 h exposure; read-out: SH-SY5Y IC50. It counts as cell-based, human.
In data set [5] the target is T1, Acetylcholinesterase from Electrophorus electricus (Electrophorus electricus, UniProt O42275).
T1 construct: purchased Sigma-Aldrich, Hamburg, Germany
Briefly: biochemical. It counts as biochemical. As to conditions: for inhibition at 1000 µM: 1 mM solution of the tested compound, read-out: Activity [%] (inhibition percentage of AChE); for SI AChE: IC50(BChE)/IC50(AChE); for IC50: mean ± SD of three experiments, read-out: AChE IC50.
Experimental: (§1) AChE and BChE inhibitory activity was measured using the microplate assay described by Ellman et al. [68] with the modifications added by López et al. [36]. The compounds were tested at concentrations between 10^−3 and 10^−8 M. First, all compounds were dissolved in 1% DMSO in a concentration of 1 mg/mL.
(§2) Incubation of the plates was performed at room temperature for 30 min. Then, 100 μL of substrate solution were added to start the enzymatic reaction. […] Enzyme activity was calculated as an inhibition percentage compared to an assay including buffer instead of an inhibitor. […] All data were analyzed with the software package Prism 3 (Graph Pad Inc., San Diego, CA, USA).

A short description of another data set: PAMPA-BBB permeability. It counts as in vitro ADME. Particulars: for PAMPA BBB −logPe: experimentally measured BBB permeability. The source says: At the same time, they needed to fulfill the requirement for good BBB permeation in order to achieve sufficient brain exposure. Although transport across the BBB is quite a complex phenomenon, passive diffusion is still the primary route for exogenous substances to access that target. So, the selected compounds were subjected to an in vitro PAMPA-BBB assay, relying on the capacity of the method in distinguishing the candidates with good BBB passive permeabilities. […].
The blood–brain barrier permeabilities were measured by PAMPA Permeability Analyzer (pIONInc, Billerica, MA, USA). The tested compounds and reference standards were prepared as 10 mM stock solutions in DMSO and further diluted in Prisma HT buffer pH 7.4. The experiment followed the BBB Protocol: 200 μL sample’s aliquots in the donor compartment, Brain Sink Buffer aliquots (200 μL) in the acceptor wells, BBB-1 lipid for coating the permeation membranes, “sandwich” assembly with the acceptor plate on top of the donor one, and incubation at temperature 25 °C for 4 h under humidity control without stirring. For permeability assessment, UV spectra of the blank, reference, donor, and acceptor plates were collected at wavelength 250–500 nm. […]. Samples were analyzed in triplicate and average values were reported. […]. Theophylline, corticosterone, and propranolol HCl were used as reference standards to control the quality and consistency of the BBB permeability experiment.
Background: In PAMPA a lipid-coated filter parts donor from acceptor wells.

The target of data set [6] is T2, butyrylcholinesterase from equine serum (Equus caballus, UniProt P81908).
T2 construct: butyrylcholinesterase from equine serum; purchased Sigma-Aldrich, Hamburg, Germany; host or cells: equine serum
The data set is described as follows: biochemical. As to conditions: for inhibition at 1000 µM: 1 mM solution of the tested compound, read-out: Activity [%] (inhibition percentage of BChE); for IC50: mean ± SD of three experiments, read-out: BChE IC50; for SI BChE: IC50(AChE)/IC50(BChE).
Experimental: as §1, §2

Another data set has as its system Neuro-2a cells. The data set is described as follows: MTT cytotoxicity, Neuro-2a. It counts as cell-based, murine. As to conditions: Mus musculus, N2a; MTT, 72 h exposure; read-out: Neuro-2a IC50.

Bounds are passed on as bounds.

T1 sequence (O42275 24-633): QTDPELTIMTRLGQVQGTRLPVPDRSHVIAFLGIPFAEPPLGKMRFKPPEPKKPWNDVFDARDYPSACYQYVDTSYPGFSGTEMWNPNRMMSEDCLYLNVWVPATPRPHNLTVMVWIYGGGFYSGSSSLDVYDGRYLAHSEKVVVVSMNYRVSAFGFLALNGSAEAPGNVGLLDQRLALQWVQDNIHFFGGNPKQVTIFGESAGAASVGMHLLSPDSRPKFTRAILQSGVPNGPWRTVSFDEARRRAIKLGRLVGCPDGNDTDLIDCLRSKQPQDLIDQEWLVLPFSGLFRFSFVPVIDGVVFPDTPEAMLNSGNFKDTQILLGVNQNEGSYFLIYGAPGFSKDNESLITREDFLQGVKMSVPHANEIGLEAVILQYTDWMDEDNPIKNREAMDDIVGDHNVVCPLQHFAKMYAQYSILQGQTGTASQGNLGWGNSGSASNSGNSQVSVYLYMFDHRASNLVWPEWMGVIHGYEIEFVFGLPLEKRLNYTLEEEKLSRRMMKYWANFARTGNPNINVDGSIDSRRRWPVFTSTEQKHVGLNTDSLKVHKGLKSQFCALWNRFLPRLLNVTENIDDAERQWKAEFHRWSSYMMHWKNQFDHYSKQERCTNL
T2 sequence (P81908 whole entry): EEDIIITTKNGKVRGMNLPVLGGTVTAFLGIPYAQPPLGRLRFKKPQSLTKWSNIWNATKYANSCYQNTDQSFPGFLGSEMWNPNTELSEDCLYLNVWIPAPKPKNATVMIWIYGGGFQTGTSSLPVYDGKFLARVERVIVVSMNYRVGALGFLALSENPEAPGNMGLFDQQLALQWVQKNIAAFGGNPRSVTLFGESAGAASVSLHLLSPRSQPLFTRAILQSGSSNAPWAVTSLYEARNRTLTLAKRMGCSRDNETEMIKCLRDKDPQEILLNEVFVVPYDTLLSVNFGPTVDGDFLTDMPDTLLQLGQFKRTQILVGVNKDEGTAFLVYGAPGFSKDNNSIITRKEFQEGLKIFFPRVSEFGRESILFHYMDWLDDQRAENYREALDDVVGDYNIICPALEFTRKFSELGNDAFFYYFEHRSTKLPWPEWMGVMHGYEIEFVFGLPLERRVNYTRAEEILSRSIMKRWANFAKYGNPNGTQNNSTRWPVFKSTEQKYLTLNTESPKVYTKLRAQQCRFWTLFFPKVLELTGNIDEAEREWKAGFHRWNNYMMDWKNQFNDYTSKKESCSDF

As to `O=C(N/N=C/C1CCN(Cc2ccccc2)CC1)c1ccc(O)cc1O` [3b, N’-[(E)-(1-benzylpiperidin-4-yl)methylidene]-2,4-dihydroxybenzohydrazide], in data set [1], the “ABTS Activity” value is listed as 93.22 ± 0.30% and the midpoint of inhibition, the IC50, lay at 2570 ± 100 µM. Further, in data set [2], the “DPPH Activity” value turned out to be 13.30 ± 0.83%. Further, the FRAP in data set [3] was found to be 16.63 ± 0.98 μMTE. The IC50 (as a rule, the concentration at which inhibition is half-maximal) in the data set on CCL-1 cells was found to be 154 ± 7.3 µM. In addition, in [4], the “Absorbance Day 1” value is given as 0.92 ± 0.06, the “Absorbance Day 2” value came out at 0.93 ± 0.09, the “Absorbance Day 3” value was 0.95 ± 0.05 and the “Absorbance Day 4” value came out at 0.96 ± 0.01. Further, the “Absorbance Day 5” value in data set [4] turned out to be 1.00 ± 0.02. Moreover, the IC50 in the data set with SH-SY5Y cells is 138 µM. In [5], the inhibition (in general, the change of the read-out against control, counted positive when it falls) at 1000 µM amounted to 89.3%; the “SI AChE” value is on record as 13.22; the IC50 stood at 19.8 ± 0.95 µM. In addition, in “PAMPA-BBB permeability” (PAMPA-BBB), the BBB permeability class result is “moderately permeable”. Further, the “PAMPA BBB −logPe” value in the data set “PAMPA-BBB permeability” was 5.873. In data set [6], the inhibition at 1000 µM worked out at 75.9% and the IC50 is 262 ± 8.75 µM. The IC50 in the data set on Neuro-2a cells was more than 300 µM.
Turning to `O=C(N/N=C/C1CCN(Cc2ccccc2)CC1)c1c[nH]c2ccccc12` [3c, N’-[(E)-(1-benzylpiperidin-4-yl)methylidene]-1H-indole-3-carbohydrazide], in [1], the “ABTS Activity” value is on record as 36.69 ± 0.70% and the IC50 was more than 5000 µM. In addition, in data set [2], the “DPPH Activity” value came out at 30.05 ± 0.55%. In data set [3], the FRAP amounted to 38.97 ± 3.58 μMTE. In the data set on CCL-1 cells, the half-inhibitory concentration (IC50) amounted to 168 ± 10.4 µM. In [4], the “Absorbance Day 1” value came to 0.89 ± 0.07, the “Absorbance Day 2” value was found to be 0.87 ± 0.02, the “Absorbance Day 3” value stood at 0.85 ± 0.05 and the “Absorbance Day 4” value is listed as 0.85 ± 0.07. The “Absorbance Day 5” value in data set [4] is 0.74 ± 0.05. Further, the IC50 in the data set with SH-SY5Y cells was 97.3 µM. In data set [5], the inhibition at 1000 µM was 72%, the “SI AChE” value amounted to 2.45 and the IC50 worked out at 10.8 ± 1.66 µM. In addition, the “PAMPA BBB −logPe” value in “PAMPA-BBB permeability” was found to be 4.466. For the same molecule, in [6], the inhibition at 1000 µM was 77% and the IC50 was 26.3 ± 3.11 µM. The IC50 in the data set with Neuro-2a cells is more than 300 µM.
Regarding `CC(C)(C)OC(=O)NCC(=O)N/N=C/c1cn(Cc2ccccc2)c2ccccc12` [3m, tert-butyl(2-{(2E)-2-[(1-benzyl-1H-indol-3-yl)methylidene]hydrazinyl}-2-oxoethyl)carbamate], in data set [1], the “ABTS Activity” value is recorded as 36.20 ± 1.40% and the IC50 is more than 5000 µM. In addition, the “DPPH Activity” value in data set [2] came out at 32.06 ± 4.70%. In data set [3], the FRAP turned out to be 19.06 ± 1.96 μMTE. The IC50 with CCL-1 cells was 65.4 ± 5.1 µM. Further, in data set [4], the “Absorbance Day 1” value was 0.89 ± 0.09, the “Absorbance Day 2” value was 0.89 ± 0.01, the “Absorbance Day 3” value turned out to be 0.92 ± 0.05 and the “Absorbance Day 4” value is 0.95 ± 0.01. The “Absorbance Day 5” value in [4] came to 0.96 ± 0.08. The IC50 in the data set on SH-SY5Y cells was found to be 7.2 ± 1.8 µM. In data set [5], the inhibition at 1000 µM amounted to 2.01% and the IC50 is more than 1000 µM. In addition, the “PAMPA BBB −logPe” value in the data set “PAMPA-BBB permeability” is on record as 4.377. For the same molecule, in data set [6], the inhibition at 1000 µM was determined as 59.4%, the “SI BChE” value was 3.05 and the IC50 was 327 ± 34.3 µM. Besides, in the data set on Neuro-2a cells, the IC50 is 109 ± 9.1 µM.
With `COc1ccc2[nH]cc(/C=N/NC(=O)Cc3c[nH]c4ccccc34)c2c1` [3n, 2-(1H-indol-3-yl)-N’-[(E)-(5-methoxy-1H-indol-3-yl)methylidene]acetohydrazide], in data set [1], the “ABTS Activity” value is listed as not below 100% and it took 770 ± 60 µM to reach half-maximal inhibition (IC50). In addition, the “DPPH Activity” value in data set [2] worked out at 40.62 ± 0.83%. In addition, the FRAP in [3] stood at 14.30 ± 0.56 μMTE. Further, the IC50 with CCL-1 cells was 48.2 ± 6.4 µM. In data set [4], the “Absorbance Day 1” value turned out to be 0.85 ± 0.05, the “Absorbance Day 2” value is on record as 0.87 ± 0.07, the “Absorbance Day 3” value is 0.89 ± 0.04 and the “Absorbance Day 4” value is on record as 0.90 ± 0.01. For the same molecule, the “Absorbance Day 5” value in [4] is on record as 0.92 ± 0.06. Also, the IC50 with SH-SY5Y cells is 108 ± 9.4 µM. Further, in [5], the inhibition at 1000 µM came out at 29.2% and the IC50 was more than 1000 µM. Moreover, the “PAMPA BBB −logPe” value in “PAMPA-BBB permeability” was 4.084. Moreover, in [6], the inhibition at 1000 µM came to 73.7%, the “SI BChE” value came out at 47.34 and the IC50 is 21.1 ± 1.48 µM. Also, in the data set on Neuro-2a cells, the IC50 was 83.7 ± 8.3 µM.
For the molecule `O=S(=O)(N/N=C/C1CCN(Cc2ccccc2)CC1)c1ccccc1` [5a, N’-[(E)-(1-benzylpiperidin-4-yl)methylidene]benzenesulfonohydrazide], in data set [1], the “ABTS Activity” value is given as 43.80 ± 0.23% and the IC50 is more than 5000 µM. For the same molecule, the “DPPH Activity” value in data set [2] came out at 6.56 ± 0.78%. Further, the FRAP in [3] was 17.48 ± 0.90 μMTE. Further, the 50% inhibitory concentration (IC50) in the data set with CCL-1 cells worked out at 157 ± 8.5 µM. In addition, in data set [4], the “Absorbance Day 1” value was determined as 0.83 ± 0.02, the “Absorbance Day 2” value amounted to 0.88 ± 0.08, the “Absorbance Day 3” value is given as 0.89 ± 0.04 and the “Absorbance Day 4” value is listed as 1.00 ± 0.04. For the same molecule, the “Absorbance Day 5” value in data set [4] is reported as 1.10 ± 0.05. In addition, the IC50 in the data set on SH-SY5Y cells was 142 ± 13.1 µM. In addition, in data set [5], the inhibition at 1000 µM worked out at 77% and the IC50 was determined as 163 ± 10.7 µM. In addition, the “PAMPA BBB −logPe” value in the data set “PAMPA-BBB permeability” is reported as 4.749. For the same molecule, in [6], the inhibition at 1000 µM was found to be 79.4% and the IC50 is 259 ± 4.9 µM. Moreover, the IC50 in the data set on Neuro-2a cells is more than 300 µM.

The values are drawn from article PMC10534827 (Pharmaceuticals, 2023).
